Patent publication US20260108527A1, “POLO LIKE KINASE 4 INHIBITORS” (ORIC Pharmaceuticals, Inc., priority 2022, published 2026)

Key:
human recombinant PLK4 = molecular target: T1, human recombinant PLK4 (Homo sapiens, UniProt O00444); test: PLK4 Biochemical Assay (ADP-Glo); conditions: 0.5 nM PLK4, 8.0 μM ATP, 4.7 μM MBP, 6 hours at RT
T1 construct: purchased ThermoFisher PV6396
T1 sequence (O00444 1-970): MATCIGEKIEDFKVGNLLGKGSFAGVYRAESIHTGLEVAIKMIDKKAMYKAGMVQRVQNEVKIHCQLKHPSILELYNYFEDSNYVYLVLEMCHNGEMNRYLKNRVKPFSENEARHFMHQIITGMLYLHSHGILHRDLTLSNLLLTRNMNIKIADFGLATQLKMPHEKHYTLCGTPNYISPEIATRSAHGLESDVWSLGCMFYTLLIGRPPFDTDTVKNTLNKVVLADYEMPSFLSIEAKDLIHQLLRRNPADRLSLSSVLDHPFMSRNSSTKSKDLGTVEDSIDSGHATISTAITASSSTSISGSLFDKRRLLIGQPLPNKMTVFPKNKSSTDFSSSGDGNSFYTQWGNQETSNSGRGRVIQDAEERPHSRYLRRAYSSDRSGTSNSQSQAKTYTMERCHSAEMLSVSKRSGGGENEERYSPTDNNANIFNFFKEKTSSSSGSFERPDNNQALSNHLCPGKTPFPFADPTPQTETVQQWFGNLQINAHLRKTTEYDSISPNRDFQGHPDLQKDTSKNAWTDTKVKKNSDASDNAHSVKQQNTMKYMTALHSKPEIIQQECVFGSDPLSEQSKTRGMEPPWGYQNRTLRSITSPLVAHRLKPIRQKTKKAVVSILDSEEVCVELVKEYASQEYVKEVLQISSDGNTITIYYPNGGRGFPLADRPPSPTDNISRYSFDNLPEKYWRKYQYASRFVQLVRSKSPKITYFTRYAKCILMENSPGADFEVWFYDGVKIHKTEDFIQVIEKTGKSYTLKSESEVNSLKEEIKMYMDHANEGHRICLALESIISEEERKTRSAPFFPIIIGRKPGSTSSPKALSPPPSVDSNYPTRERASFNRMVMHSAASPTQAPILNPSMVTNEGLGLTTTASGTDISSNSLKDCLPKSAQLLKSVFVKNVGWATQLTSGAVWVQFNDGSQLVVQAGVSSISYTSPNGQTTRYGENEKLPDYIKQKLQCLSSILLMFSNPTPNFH
Outline: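 PLK4 at 1.0 nM in HEPES pH 7.5 buffer with 10 mM MgCl2, 1 mM EGTA, 1 mM DTT, preincubated 15 min at RT with compound. ADP formed quantified by ADP-Glo luminescence after ATP depletion. IC50 from four-parameter non-linear regression.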

[1] = molecular target: T2, human recombinant Aurora B (Homo sapiens, UniProt Q96GD4); test: Aurora B Kinase Biochemical Assay (ADP-Glo); conditions: selectivity ratio; Aurora B 10 nM, 114 μM ATP
T2 construct: purchased ThermoFisher PR9210B
T2 sequence (Q96GD4 whole entry): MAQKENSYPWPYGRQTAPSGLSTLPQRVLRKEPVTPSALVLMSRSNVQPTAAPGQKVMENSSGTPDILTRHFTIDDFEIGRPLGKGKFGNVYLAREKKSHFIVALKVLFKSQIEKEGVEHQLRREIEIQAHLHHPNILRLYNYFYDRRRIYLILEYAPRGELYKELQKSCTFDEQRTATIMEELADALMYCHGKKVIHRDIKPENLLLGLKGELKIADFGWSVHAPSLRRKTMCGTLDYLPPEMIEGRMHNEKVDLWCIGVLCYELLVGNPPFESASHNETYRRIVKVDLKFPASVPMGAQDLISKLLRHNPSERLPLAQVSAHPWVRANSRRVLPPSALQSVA
Outline: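 Aurora B (10 nM) was pre-incubated with compound for 15 min, then reacted with 114 μM ATP and 4.7 μM MBP for 2 h at RT in 50 mM HEPES pH 7.5, 10 mM MgCl2, 1 mM DTT. ADP was read by ADP-Glo luminescence, and IC50 values came from four-parameter fits of 11-point, 3-fold titrations in duplicate.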

CHP134 = CHP134 CellTiter-Glo (CTG) Assay; type: cell-based; conditions: Homo sapiens, CHP-134, 120 h; viable cells by CellTiter-Glo after 5 days
Outline: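 CHP134 cells were seeded at 200 cells/well for 16 h, then treated in quadruplicate with nine-point 1:3 serial dilutions at 37 °C, 5% CO2. Viable cells were read by CellTiter-Glo luminescence after 5 days, and IC50 values were derived from the dose-response curves.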

Row | IC50 (human recombinant PLK4) [nM] | [Aurora B IC50 (nM)]/[PLK4 IC50 (nM)] [1] | SMILES | IC50 (CHP134) [nM]
1 | 1.41 | 1017 | CCOc1cc(S(C)(=O)=O)ccc1Nc1n[nH]c2cc([C@@H]3C[C@@]34C(=O)N(C)c3ccc(OC)cc34)ccc12 [Example 23, (1R,2S)-2-{3-[2-ethoxy-4-(methanesulfonyl)anilino]-1H-indazol-6-yl}-5′-methoxy-1′-methylspiro[cyclopropane-1,3′-indol]-2′(1′H)-one] | 111
2 | 0.28 | 410.7334 | COc1ccc2c(c1)[C@]1(C[C@H]1c1ccc3c(Nc4nc(-c5cnco5)ncc4OC)n[nH]c3c1)C(=O)N2 [Example 40, (1R,2S)-5′-methoxy-2-(3-{[5-methoxy-2-(1,3-oxazol-5-yl)pyrimidin-4-yl]amino}-1H-indazol-6-yl)spiro[cyclopropane-1,3′-indol]-2′(1′H)-one] | 237
3 | 0.99 | 460 | COc1ccc2c(c1)[C@]1(C[C@H]1c1ccc3c(Nc4nc(-c5ncco5)cnc4OC)n[nH]c3c1)C(=O)N2 [Example 19, (1R,2S)-5′-methoxy-2-(3-{[3-methoxy-6-(1,3-oxazol-2-yl)pyrazin-2-yl]amino}-1H-indazol-6-yl)spiro[cyclopropane-1,3′-indol]-2′(1′H)-one] | 170
4 | 0.694 | 1970.3298 | COc1ccc2c(c1)[C@]1(C[C@H]1c1ccc3c(Nc4cc(-c5ccsn5)ccc4OC)n[nH]c3c1)C(=O)N2 [Example 30, (1R,2S)-5′-methoxy-2-{3-[2-methoxy-5-(1,2-thiazol-3-yl)anilino]-1H-indazol-6-yl}spiro[cyclopropane-1,3′-indol]-2′(1′H)-one] | 97.4
5 | 0.797 | 791.6196 | COc1ccc2c(c1)[C@]1(C[C@H]1c1ccc3c(Nc4cc5c(cc4OC)S(=O)(=O)CC5)n[nH]c3c1)C(=O)N2 [Example 1, 6-methoxy-5-({6-[(1R,2S)-5′-methoxy-2′-oxo-1′,2′-dihydrospiro[cyclopropane-1,3′-indol]-2-yl]-1H-indazol-3-yl}amino)-2,3-dihydro-1H-1-benzothiophene-1,1-dione] | 242
6 | 0.341 | 1526.5629 | CCOc1ccc(-c2nccs2)nc1Nc1n[nH]c2cc([C@@H]3C[C@@]34C(=O)Nc3ccc(OC)cc34)ccc12 [Example 28, (1R,2S)-2-(3-{[3-ethoxy-6-(1,3-thiazol-2-yl)pyridin-2-yl]amino}-1H-indazol-6-yl)-5′-methoxyspiro[cyclopropane-1,3′-indol]-2′(1′H)-one] | 16.7
7 | 0.557 | 396.7684 | CCOc1cc(-n2cncn2)ccc1Nc1n[nH]c2cc([C@@H]3C[C@@]34C(=O)Nc3ccc(OC)cc34)ccc12 [Example 10, (1R,2S)-2-{3-[2-ethoxy-4-(1H-1,2,4-triazol-1-yl)anilino]-1H-indazol-6-yl}-5′-methoxyspiro[cyclopropane-1,3′-indol]-2′(1′H)-one] | 120
8 | 1.25 | 469.6557 | COc1ccc2c(c1)[C@]1(C[C@H]1c1ccc3c(Nc4cc(-c5cnn(CC(F)F)c5)cnc4OC)n[nH]c3c1)C(=O)N2 [Example 46, (1R,2S)-2-(3-((5-(1-(2,2-difluoroethyl)-1H-pyrazol-4-yl)-2-methoxypyridin-3-yl)amino)-1H-indazol-6-yl)-5′-methoxyspiro[cyclopropane-1,3′-indolin]-2′-one] | 370
9 | 3.1 | 810 | CCOc1cc2c(ccc[n+]2[O-])cc1Nc1n[nH]c2cc([C@@H]3C[C@@]34C(=O)Nc3ccc(OC)cc34)ccc12 [Example 12, 7-ethoxy-6-((6-((1R,2S)-5′-methoxy-2′-oxospiro[cyclopropane-1,3′-indolin]-2-yl)-1H-indazol-3-yl)amino)quinoline 1-oxide] | 1100
10 | 2.8 | 120 | COc1ccc2c(c1)[C@]1(C[C@H]1c1ccc3c(Nc4nc(N(C)C)ncc4OC)n[nH]c3c1)C(=O)N2 [Example 20, (1R,2S)-2-(3-{[2-(dimethylamino)-5-methoxypyrimidin-4-yl]amino}-1H-indazol-6-yl)-5′-methoxyspiro[cyclopropane-1,3′-indol]-2′(1′H)-one] | 440
11 | 1.31 | 465.6990 | COc1ccc2c(c1)[C@]1(C[C@H]1c1ccc3c(Nc4cc(-c5cocn5)cnc4OC)n[nH]c3c1)C(=O)N2 [Example 42, (1R,2S)-5′-methoxy-2-(3-{[2-methoxy-5-(1,3-oxazol-4-yl)pyridin-3-yl]amino}-1H-indazol-6-yl)spiro[cyclopropane-1,3′-indol]-2′(1′H)-one] | 281
12 | 1.06 | 954.5884 | COc1ccc2c(c1)[C@]1(C[C@H]1c1ccc3c(Nc4cc(-c5cnn(C)c5)ncc4OC)n[nH]c3c1)C(=O)N2 [Example 27, (1R,2S)-5′-methoxy-2-(3-{[5-methoxy-2-(1-methyl-1H-pyrazol-4-yl)pyridin-4-yl]amino}-1H-indazol-6-yl)spiro[cyclopropane-1,3′-indol]-2′(1′H)-one] | 463
13 | 0.52 | 1051.5384 | COc1ccc2c(c1)[C@]1(C[C@H]1c1ccc3c(Nc4cc(-c5cnn(C)c5)ccc4OC)n[nH]c3c1)C(=O)N2 [Example 11, (1R,2S)-5′-methoxy-2-{3-[2-methoxy-5-(1-methyl-1H-pyrazol-4-yl)anilino]-1H-indazol-6-yl}spiro[cyclopropane-1,3′-indol]-2′(1′H)-one] | 110
14 | 0.708 | 238.2702 | CCS(=O)(=O)c1ccc(Nc2n[nH]c3cc([C@@H]4C[C@@]45C(=O)Nc4ccc(OC)cc45)ccc23)c(OC)c1 [Example 5, (1R,2S)-2-{3-[4-(ethanesulfonyl)-2-methoxyanilino]-1H-indazol-6-yl}-5′-methoxyspiro[cyclopropane-1,3′-indol]-2′(1′H)-one] | 39.1
15 | 0.71 | 520 | COc1ccc2c(c1)[C@]1(C[C@H]1c1ccc3c(Nc4cc(-c5cnco5)ccc4OC)n[nH]c3c1)C(=O)N2 [Example 18, (1R,2S)-5′-methoxy-2-{3-[2-methoxy-5-(1,3-oxazol-5-yl)anilino]-1H-indazol-6-yl}spiro[cyclopropane-1,3′-indol]-2′(1′H)-one] | 170
16 | 0.408 | 263.2352 | COc1ccc2c(c1)[C@]1(C[C@H]1c1ccc3c(Nc4nc(-c5cnn(C)c5)cnc4OC)n[nH]c3c1)C(=O)N2 [Example 24, (1R,2S)-5′-methoxy-2-(3-{[3-methoxy-6-(1-methyl-1H-pyrazol-4-yl)pyrazin-2-yl]amino}-1H-indazol-6-yl)spiro[cyclopropane-1,3′-indol]-2′(1′H)-one] | 49.9
17 | 0.639 | 897.1830 | COc1ccc2c(c1)[C@]1(C[C@H]1c1ccc3c(Nc4cc(-c5nccs5)ccc4OC)n[nH]c3c1)C(=O)N2 [Example 14, (1R,2S)-5′-methoxy-2-{3-[2-methoxy-5-(1,3-thiazol-2-yl)anilino]-1H-indazol-6-yl}spiro[cyclopropane-1,3′-indol]-2′(1′H)-one] | 88.7
18 | 0.65 | 1120.7692 | COc1ccc2c(c1)[C@]1(C[C@H]1c1ccc3c(Nc4cc(-c5ncco5)ccc4OC)n[nH]c3c1)C(=O)N2 [Example 13, (1R,2S)-5′-methoxy-2-{3-[2-methoxy-5-(1,3-oxazol-2-yl)anilino]-1H-indazol-6-yl}spiro[cyclopropane-1,3′-indol]-2′(1′H)-one] | 348
